Results as given in ChEMBL document CHEMBL3885881, “DrugMatrix”.

Species: Rattus norvegicus
Assay: DrugMatrix - Regimen: Daily Repeat
Assay type: toxicity, organism-based, Sprague-Dawley
Set-up: regimen Daily Repeat, gender Male, age 6-8 weeks
Details: in vivo, po, route oral GAVAGE, vehicle 100 % WATER; for ABSOLUTE BASOPHIL / ABSOLUTE EOSINOPHIL / ABSOLUTE LYMPHOCYTE / ABSOLUTE MONOCYTE / ABSOLUTE SEGMENTED NEUTROPHIL / BASOPHIL / EOSINOPHIL / ERYTHROCYTE COUNT / HEMATOCRIT / HEMOGLOBIN / LEUKOCYTE COUNT / LYMPHOCYTE / MEAN CORPUSCULAR HEMOGLOBIN / MEAN CORPUSCULAR HEMOGLOBIN CONCENTRATION / MEAN CORPUSCULAR VOLUME / MONOCYTE / NEUTROPHIL / NUCLEATED RED BLOOD CELLS / PLATELET COUNT: tissue Blood; for ALANINE AMINOTRANSFERASE / ALBUMIN / ALKALINE PHOSPHATASE / ASPARTATE AMINOTRANSFERASE / BLOOD UREA NITROGEN / CARBON DIOXIDE / CHLORIDE / CHOLESTEROL / CREATINE PHOSPHOKINASE / CREATININE / GLUCOSE / LACTATE DEHYDROGENASE / LIPASE / PHOSPHORUS / POTASSIUM / SODIUM / TOTAL BILIRUBIN / TOTAL PROTEIN / URIC ACID: tissue Plasma
[1] = 0 mg/kg, 72 h, dose level Control, time 3 day
[2] = 0 mg/kg, 120 h, dose level Control, time 5 day
[3] = 25 mg/kg, 72 h, dose level Low, time 3 day
[4] = 25 mg/kg, 120 h, dose level Low, time 5 day

SMILES: CCC1(c2ccccc2)C(=O)NC(=O)NC1=O [PHENOBARBITAL]
- ABSOLUTE BASOPHIL [1]: 0 CELLS/uL
- ABSOLUTE EOSINOPHIL [1]: 32.5 CELLS/uL
- ABSOLUTE LYMPHOCYTE [1]: 9305.83 CELLS/uL
- ABSOLUTE MONOCYTE [1]: 43.83 CELLS/uL
- ABSOLUTE SEGMENTED NEUTROPHIL [1]: 817.83 CELLS/uL
- BASOPHIL [1]: 0%
- EOSINOPHIL [1]: 0.33%
- ERYTHROCYTE COUNT [1]: 5.38 x10E6/uL
- HEMATOCRIT [1]: 33.63%
- HEMOGLOBIN [1]: 13.17 G/DL
- LEUKOCYTE COUNT [1]: 10.2 x10E3/uL
- LYMPHOCYTE [1]: 91.17%
- MEAN CORPUSCULAR HEMOGLOBIN [1]: 24.5 pg
- MEAN CORPUSCULAR HEMOGLOBIN CONCENTRATION [1]: 39.13 G/DL
- MEAN CORPUSCULAR VOLUME [1]: 62.53 fL
- MONOCYTE [1]: 0.5%
- NEUTROPHIL [1]: 8%
- NUCLEATED RED BLOOD CELLS [1]: 0.17 /100WBC
- PLATELET COUNT [1]: 858 x10E3/uL
- ALANINE AMINOTRANSFERASE [1]: 55.67 u/L
- ALBUMIN [1]: 4.07 G/DL
- ALKALINE PHOSPHATASE [1]: 337 u/L
- ASPARTATE AMINOTRANSFERASE [1]: 84 u/L
- BLOOD UREA NITROGEN [1]: 13.17 mg/dL
- CARBON DIOXIDE [1]: 34.17 mmol/L
- CHLORIDE [1]: 99.33 MEQ/L
- CHOLESTEROL [1]: 78.83 mg/dL
- CREATINE PHOSPHOKINASE [1]: 576.83 u/L
- CREATININE [1]: 0.17 mg/dL
- GLUCOSE [1]: 152.67 mg/dL
- LACTATE DEHYDROGENASE [1]: 147.83 u/L
- LIPASE [1]: 9.5 u/L
- PHOSPHORUS [1]: 10.78 mg/dL
- POTASSIUM [1]: 6.34 MEQ/L
- SODIUM [1]: 144.12 MEQ/L
- TOTAL BILIRUBIN [1]: 0.18 mg/dL
- TOTAL PROTEIN [1]: 6.08 G/DL
- URIC ACID [1]: 0.65 mg/dL
- ABSOLUTE BASOPHIL [2]: 0 CELLS/uL
- ABSOLUTE EOSINOPHIL [2]: 31.17 CELLS/uL
- ABSOLUTE LYMPHOCYTE [2]: 7918.33 CELLS/uL
- ABSOLUTE MONOCYTE [2]: 58.33 CELLS/uL
- ABSOLUTE SEGMENTED NEUTROPHIL [2]: 725.5 CELLS/uL
- BASOPHIL [2]: 0%
- EOSINOPHIL [2]: 0.33%
- ERYTHROCYTE COUNT [2]: 5.32 x10E6/uL
- HEMATOCRIT [2]: 33.53%
- HEMOGLOBIN [2]: 13.17 G/DL
- LEUKOCYTE COUNT [2]: 8.73 x10E3/uL
- LYMPHOCYTE [2]: 90.33%
- MEAN CORPUSCULAR HEMOGLOBIN [2]: 24.82 pg
- MEAN CORPUSCULAR HEMOGLOBIN CONCENTRATION [2]: 39.33 G/DL
- MEAN CORPUSCULAR VOLUME [2]: 63.12 fL
- MONOCYTE [2]: 0.67%
- NEUTROPHIL [2]: 8.67%
- NUCLEATED RED BLOOD CELLS [2]: 0 /100WBC
- PLATELET COUNT [2]: 1144.83 x10E3/uL
- ALANINE AMINOTRANSFERASE [2]: 60.5 u/L
- ALBUMIN [2]: 3.97 G/DL
- ALKALINE PHOSPHATASE [2]: 343.17 u/L
- ASPARTATE AMINOTRANSFERASE [2]: 80.83 u/L
- BLOOD UREA NITROGEN [2]: 15 mg/dL
- CARBON DIOXIDE [2]: 31 mmol/L
- CHLORIDE [2]: 99.75 MEQ/L
- CHOLESTEROL [2]: 71.5 mg/dL
- CREATINE PHOSPHOKINASE [2]: 237.17 u/L
- CREATININE [2]: 0.17 mg/dL
- GLUCOSE [2]: 137 mg/dL
- LACTATE DEHYDROGENASE [2]: 146.17 u/L
- LIPASE [2]: 11.5 u/L
- PHOSPHORUS [2]: 10.13 mg/dL
- POTASSIUM [2]: 6 MEQ/L
- SODIUM [2]: 145 MEQ/L
- TOTAL BILIRUBIN [2]: 0.13 mg/dL
- TOTAL PROTEIN [2]: 5.82 G/DL
- URIC ACID [2]: 0.62 mg/dL
- ABSOLUTE BASOPHIL [3]: 0 CELLS/uL
- ABSOLUTE EOSINOPHIL [3]: 0 CELLS/uL
- ABSOLUTE LYMPHOCYTE [3]: 9305.33 CELLS/uL
- ABSOLUTE MONOCYTE [3]: 110 CELLS/uL
- ABSOLUTE SEGMENTED NEUTROPHIL [3]: 784.67 CELLS/uL
- BASOPHIL [3]: 0%
- EOSINOPHIL [3]: 0%
- ERYTHROCYTE COUNT [3]: 5.23 x10E6/uL
- HEMATOCRIT [3]: 33.43%
- HEMOGLOBIN [3]: 13.03 G/DL
- LEUKOCYTE COUNT [3]: 10.2 x10E3/uL
- LYMPHOCYTE [3]: 92.33%
- MEAN CORPUSCULAR HEMOGLOBIN [3]: 24.97 pg
- MEAN CORPUSCULAR HEMOGLOBIN CONCENTRATION [3]: 39 G/DL
- MEAN CORPUSCULAR VOLUME [3]: 63.97 fL
- MONOCYTE [3]: 0.67%
- NEUTROPHIL [3]: 7%
- NUCLEATED RED BLOOD CELLS [3]: 0 /100WBC
- PLATELET COUNT [3]: 972.33 x10E3/uL
- ALANINE AMINOTRANSFERASE [3]: 52.33 u/L
- ALBUMIN [3]: 4 G/DL
- ALKALINE PHOSPHATASE [3]: 326.67 u/L
- ASPARTATE AMINOTRANSFERASE [3]: 74.67 u/L
- BLOOD UREA NITROGEN [3]: 12 mg/dL
- CARBON DIOXIDE [3]: 35 mmol/L
- CHLORIDE [3]: 97.5 MEQ/L
- CHOLESTEROL [3]: 87.67 mg/dL
- CREATINE PHOSPHOKINASE [3]: 212 u/L
- CREATININE [3]: 0.15 mg/dL
- GLUCOSE [3]: 146.33 mg/dL
- LACTATE DEHYDROGENASE [3]: 153.33 u/L
- LIPASE [3]: 12 u/L
- PHOSPHORUS [3]: 11.73 mg/dL
- POTASSIUM [3]: 6.16 MEQ/L
- SODIUM [3]: 143.95 MEQ/L
- TOTAL BILIRUBIN [3]: 0.2 mg/dL
- TOTAL PROTEIN [3]: 5.83 G/DL
- URIC ACID [3]: 0.83 mg/dL
- ABSOLUTE BASOPHIL [4]: 0 CELLS/uL
- ABSOLUTE EOSINOPHIL [4]: 0 CELLS/uL
- ABSOLUTE LYMPHOCYTE [4]: 5785.67 CELLS/uL
- ABSOLUTE MONOCYTE [4]: 18.33 CELLS/uL
- ABSOLUTE SEGMENTED NEUTROPHIL [4]: 262.67 CELLS/uL
- BASOPHIL [4]: 0%
- EOSINOPHIL [4]: 0%
- ERYTHROCYTE COUNT [4]: 5.55 x10E6/uL
- HEMATOCRIT [4]: 34.67%
- HEMOGLOBIN [4]: 13.1 G/DL
- LEUKOCYTE COUNT [4]: 6.07 x10E3/uL
- LYMPHOCYTE [4]: 94.33%
- MEAN CORPUSCULAR HEMOGLOBIN [4]: 23.57 pg
- MEAN CORPUSCULAR HEMOGLOBIN CONCENTRATION [4]: 37.77 G/DL
- MEAN CORPUSCULAR VOLUME [4]: 62.47 fL
- MONOCYTE [4]: 0.33%
- NEUTROPHIL [4]: 5.33%
- NUCLEATED RED BLOOD CELLS [4]: 0 /100WBC
- PLATELET COUNT [4]: 1109.67 x10E3/uL
- ALANINE AMINOTRANSFERASE [4]: 55.33 u/L
- ALBUMIN [4]: 4.13 G/DL
- ALKALINE PHOSPHATASE [4]: 380.67 u/L
- ASPARTATE AMINOTRANSFERASE [4]: 85 u/L
- BLOOD UREA NITROGEN [4]: 17.67 mg/dL
- CARBON DIOXIDE [4]: 32.67 mmol/L
- CHLORIDE [4]: 100 MEQ/L
- CHOLESTEROL [4]: 89.67 mg/dL
- CREATINE PHOSPHOKINASE [4]: 357 u/L
